Patent US10150751B2 (Merck Sharp & Dohme Corp., priority 2014, dated 2018)

Experiments:
[1] = molecular target: human orexin-2 receptor (Homo sapiens (Human), UniProt O43614); experiment: FLIPR Ca2+ flux assay, hOX2R; format: cell-based; conditions: CHO cells expressing the human orexin-2 receptor; agonist 70 pM Ala-6,12 orexin-A
Experimental: The utility of the compounds in accordance with the present invention as orexin receptor OX1R and/or OX2R antagonists may be readily determined without undue experimentation by methodology well known in the art, including the “FLIPR Ca^2+ Flux Assay” (Okumura et al., Biochem. Biophys. Res. Comm. 280:976-981, 2001). In a typical experiment the OX1 and OX2 receptor antagonistic activity of the compounds of the present invention was determined in accordance with the following experimental method. For intracellular calcium measurements, Chinese hamster ovary (CHO) cells expressing the rat orexin-1 receptor or the human orexin-2 receptor, are grown in Iscove's modified DMEM containing 2 mM L-glutamine, […], 1% hypoxanthine-thymidine supplement, 100 U/ml penicillin, 100 μg/ml streptomycin and 10% heat-inactivated fetal calf serum (FCS). The cells are seeded at 20,000 cells/well into Becton-Dickinson black 384-well clear bottom sterile plates coated with poly-D-lysine. All reagents were from GIBCO-Invitrogen Corp. The seeded plates are incubated overnight at 37° C. and 5% CO2. Ala-6,12 human orexin-A as the agonist is prepared as a 1 mM stock solution in 1% bovine serum albumin (BSA) and diluted in assay buffer (HBSS containing 20 mM HEPES, 0.1% BSA and 2.5 mM probenecid, pH7.4) for use in the assay at a final concentration of 70pM. Test compounds are prepared as 10 mM stock solution in DMSO, then diluted in 384-well plates, first in DMSO, then assay buffer. On the day of the assay, cells are washed 3 times with 100 μl assay buffer and then incubated for 60 min (37° C., 5% CO2) in 60 μl assay buffer containing 1 μM Fluo-4AM ester, 0.02% pluronic acid, and 1% BSA. The dye loading solution is then aspirated and cells are washed 3 times with 100 μl assay buffer. 30 μl of that same buffer is left in each well. Within the Fluorescent Imaging Plate Reader (FLIPR, Molecular Devices), test compounds are added to the plate in a volume of 25 μl, incubated for 5 min and finally 25 μl of agonist is added. Fluorescence is measured for each well at 1 second intervals for 5 minutes and the height of each fluorescence peak is compared to the height of the fluorescence peak induced by 70 pM Ala-6,12 orexin-A with buffer in place of antagonist. For each antagonist, IC50 value (the concentration of compound needed to inhibit 50% of the agonist response) is determined. Alternatively, compound potency can be assessed by a radioligand binding assay (described in Bergman et. al. Bioorg. Med. Chem. Lett. 2008, 18, 1425-1430) in which the inhibition constant (Ki) is determined in membranes prepared from CHO cells expressing either the OX1 or OX2 receptor. The intrinsic orexin receptor antagonist activity of a compound which may be used in the present invention may be determined by these assays.

[2] = molecular target: hOX1R (orexin-1 receptor) (Homo sapiens, UniProt O43613); experiment: FLIPR Ca2+ flux assay, hOX1R; format: cell-based; conditions: CHO cells expressing the orexin-1 receptor (head: hOX1R; method: rat); agonist 70 pM Ala-6,12 orexin-A

Sequence of human orexin-2 receptor (O43614 whole entry): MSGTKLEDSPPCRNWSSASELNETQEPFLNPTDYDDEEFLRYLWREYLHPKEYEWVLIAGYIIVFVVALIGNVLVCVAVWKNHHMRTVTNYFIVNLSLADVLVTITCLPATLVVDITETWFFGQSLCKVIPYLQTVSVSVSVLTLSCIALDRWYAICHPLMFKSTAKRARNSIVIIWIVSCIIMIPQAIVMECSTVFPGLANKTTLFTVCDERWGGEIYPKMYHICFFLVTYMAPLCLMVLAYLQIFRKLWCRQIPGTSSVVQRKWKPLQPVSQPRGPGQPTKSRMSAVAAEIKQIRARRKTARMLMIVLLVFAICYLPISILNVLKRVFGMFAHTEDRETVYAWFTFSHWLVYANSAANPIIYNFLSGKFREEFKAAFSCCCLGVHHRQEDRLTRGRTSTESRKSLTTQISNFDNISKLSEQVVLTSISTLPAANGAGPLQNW

Compound | IC50 [1] | IC50 [2] | hOX2R FLIPR IC50 [1]
CCOc1ccnc(N[C@@H]2C[C@@H](C)N(C(=O)c3ccccc3-n3nccn3)C2)c1C(=O)OC [Example 34, Methyl 2-(((3R,5R)-1-(2-(2H-1,2,3-triazol-2-yl)benzoyl)-5-methylpyrrolidin-3-yl)amino)-4-ethoxynicotinate] | 0.0662 µM | > 10 µM | –
C[C@@H]1C[C@@H](Nc2cc(OCC(F)F)ccn2)CN1C(=O)c1ccsc1-c1ncccn1 [Example 4] | 0.52 µM | > 10 µM | –
CCOc1ccnc(N[C@@H]2C[C@@H](C)N(C(=O)c3ccccc3-n3nccn3)C2)c1 [Example 21, (2-(2H-1,2,3-triazol-2-yl)phenyl)((2R,4R)-4-((4-ethoxypyridin-2-yl)amino)-2-methylpyrrolidin-1-yl)methanone] | 0.0315 µM | 3.99 µM | –
C[C@@H]1C[C@@H](Nc2cc(C(F)F)ccn2)CN1C(=O)c1ccsc1-n1nccn1 [Example 27, (2-(2H-1,2,3-Triazol-2-yl)thiophen-3-yl)((2R,4R)-4-((4-(difluoromethyl)pyridin-2-yl)amino)-2-methylpyrrolidin-1-yl)methanone] | 0.0678 µM | > 10 µM | –
CC(C)Oc1ccnc(N[C@@H]2C[C@@H](C)N(C(=O)c3ccccc3-n3nccn3)C2)c1 [Example 20, (2-(2H-1,2,3-Triazol-2-yl)phenyl)((2R,4R)-4-((4-isopropoxypyridin-2-yl)amino)-2-methylpyrrolidin-1-yl)methanone] | 0.0398 µM | 2.8 µM | –
C[C@@H]1C[C@@H](N(C)c2cc(C#N)ccn2)CN1C(=O)c1ccccc1-n1nccn1 [Example 23, 2-(((3R,5R)-1-(2-(2H-1,2,3-triazol-2-yl)benzoyl)-5-methylpyrrolidin-3-yl)(methyl)amino)isonicotinonitrile] | – | > 10 µM | 120/5
C[C@@H]1C[C@@H](Nc2cc(OCC(F)F)ccn2)CN1C(=O)c1cccc2c1CCC2 [Example 7, ((2R,4R)-4-((4-(2,2-difluoroethoxy)pyridin-2-yl)amino)-2-methylpyrrolidin-1-yl)(2,3-dihydro-1H-inden-4-yl)methanone] | 2 µM | > 10 µM | –
C[C@@H]1C[C@@H](Nc2cc(OCC(F)F)ccn2)CN1C(=O)c1ccccc1C1(C#N)CC1 [Example 2, 1-(2-((2R,4R)-4-((4-(2,2-difluoroethoxy)pyridin-2-yl)amino)-2-methylpyrrolidine-1-carbonyl)phenyl)cyclopropanecarbonitrile] | 0.0651 µM | 10 µM | –
COC(=O)c1c(C#N)ccnc1N[C@@H]1C[C@@H](C)N(C(=O)c2ccccc2-n2nccn2)C1 [Example 38, Methyl 2-(((3R,5R)-1-(2-(2H-1,2,3-triazol-2-yl)benzoyl)-5-methylpyrrolidin-3-yl)amino)-4-cyanonicotinate] | 0.0146 µM | 1.55 µM | –
COc1cccnc1N[C@@H]1C[C@@H](C)N(C(=O)c2nccnc2-c2ccccn2)C1 [Example 44, ((2R,4R)-4-((3-Methoxypyridin-2-yl)amino)-2-methylpyrrolidin-1-yl)(3-(pyridin-2-yl)pyrazin-2-yl)methanone] | 2.37 µM | 10 µM | –
C[C@@H]1C[C@@H](Nc2cc(C(F)F)ccn2)CN1C(=O)c1cscc1-n1nccn1 [Example 28, (4-(2H-1,2,3-triazol-2-yl)thiophen-3-yl)((2R,4R)-4-((4-(difluoromethyl)pyridin-2-yl)amino)-2-methylpyrrolidin-1-yl)methanone] | 0.102 µM | > 10 µM | –
Cc1c(C#N)ccnc1N[C@@H]1C[C@@H](C)N(C(=O)c2ccccc2-n2nccn2)C1 [Example 36, 2-(((3R,5R)-1-(2-(2H-1,2,3-Triazol-2-yl)benzoyl)-5-methylpyrrolidin-3-yl)amino)-3-methylisonicotinonitrile] | 0.0236 µM | 3.35 µM | –
